Assays:
Type in all cases: in vivo, C57BL/6J male mice
[1] = system: GSH, PON, GR; test: Antioxidant enzyme activity in liver and plasma; settings: DRH supplementation; decrease in NC vs YC
Procedure: To analyze antioxidant activity, superoxide dismutase (SOD) activity was measured in an alkaline state by pyrogallol autoxidation using a modified method of Marklund et al. Also, catalase (CAT) activity was measured using a modified method of Aebi et al. Paraoxonase (PON) activity was measured using a modified method of Mackness et al. in order to measure an increase in absorbance of p-nitrophenol. Glutathione reductase (GR) activity was measured using a modified method of Pinto and Bartley, which was used to measure NADPH oxidation. Total glutathione (GSH) content was measured using a modified method of Ellman et al.

[2] = system: Mitochondrial respiratory chain complexes; test: BN-PAGE of mitochondrial respiratory chain complexes; settings: quadriceps mitochondria, vs NC group
Procedure: Mitochondria were isolated from the quadriceps muscle using the Potter-Elvehjem method. To extract respiratory SCs, a sample buffer cocktail was prepared using 8 μL of digitonin (Invitrogen, USA) per 50 μg of protein, 4×5 μL of a sample buffer (Invitrogen, USA) per 50 μg of protein, and 7 μL of water per 50 μg of protein. Thereafter, the solution was mixed with mitochondria. The BN-PAGE run and transfer were performed. An Ox-Phos Rodent WB antibody cocktail (Invitrogen, USA) was reacted at room temperature for 2 hours. Then, a secondary antibody solution Alk-Phos (Invitrogen, USA) was reacted at room temperature for an hour. Immunoreactive bands were developed using chromogen (BCIP/NBT). Then, the bands in a final state were checked.

[3] = Body weight, food intake and organ weights of aged mice fed 3% D-ribo-2-hexulose diet for 12 weeks
Procedure: Twenty-one 48-week-old C57BL/6J male mice and seven 8-week-old C57BL/6J male mice were purchased from JA BIO Inc. (Korea). The purchased animals were raised in a breeding room with a controlled temperature (20 to 23° C.) and a light/dark cycle (a 12-hour cycle), and were provided with pelletized commercial non-purified feed for the first week.
Specifically, a negative control group (NC, n=7, American Institute of Nutrition AIN-93G Semisynthetic diet); a D-ribo-2-hexulose-treated group (D-ribo-2-hexulose; DRH, n=7; a portion of cellulose in AIN-93G was replaced with 3% D-ribo-2-hexulose). […] The dose of D-ribo-2-hexulose was set at 3% based on previous animal studies. In the previous studies, the dose of D-ribo-2-hexulose was determined to be 3% in order to investigate a biological effect at a lower dose than the dose. During the experiment, the mice had free access to distilled water, and the food intakes and body weights of the mice were measured weekly, and blood glucose was measured once every 4 weeks. All animal experiments were approved by the Animal Research Ethics Committee of KyungPook National University (Approval Number: KNU-2020-109).

[4] = DRH group, aged mice, AIN-93G + 3% DRH 12 weeks, Mean ± SD

With `O=C(CO)[C@H](O)[C@H](O)[C@H](O)CO` [DRH, D-ribo-2-hexulose] as the compound, how does the “liver GR activity” value [1] read?
Its value is “increased”.

What about the “liver GSH-Px activity” value [1] of the same compound?
The value was “increased”.

What about the “liver PON activity” value [1] of the same compound?
The value was “increased”.

What about the “plasma PON activity” value [1] of the same compound?
Its value is “increased”.

What about the “mitochondrial respiratory chain Complex IV” value [2] of the same compound?
The value was “significantly increased”.

What about the final body weight ([3]; DRH group vs NC group) of the same compound?
Its final body weight is “significantly lower”.

What about the kidney weight ([3]; DRH group vs NC group) of the same compound?
The kidney weight was “increased”.

What about the liver weight ([3]; DRH group vs NC group) of the same compound?
The liver weight was “decreased”.

And the spleen weight ([3]; DRH group vs NC group)?
The spleen weight was “no significant difference”.

And the weight gain ([3]; DRH group vs NC group)?
The weight gain was “significantly lower”.

And the “Final BW” value [3, 4]?
The value was 37.59 ± 0.56^$$ g.

What about the “Total BWG” value [3, 4] of the same compound?
Its value is 1.36 ± 0.20^$$$ g.

And the kidney weight [3, 4]?
The kidney weight was 1.10 ± 0.02^$$ g per 100 g BW.

What about the liver weight [3, 4] of the same compound?
Its liver weight is 3.71 ± 0.07^$ g per 100 g BW.

What about the spleen weight [3, 4] of the same compound?
Its spleen weight is 0.20 ± 0.02 ^ g per 100 g BW.
